Measured values: US10576039B2, “Ophthalmic formulation comprising citicoline carried by liposome for the treatment of glaucoma” (Omikron Italia S.r.l., priority 2016, dated 2020)

Key:
[1] = Citicoline in vitreous humour and blood by HPLC after topical instillation of liposome solution; format: in vivo, male mice of Wistar-Kyoto strain
Text: For the experimental group 12 animals were used for an adequate statistical management of the results (average, standard deviation and significance).
The used number of animals, following statistical evaluation, represents the minimum number therefrom it is possible to obtain significant data. In the study male mice of Wistar-Kyoto strain were used according to previous experiments performed by the research group.
The animals were kept and manipulated in a structure suitable for keeping the animals under optimum conditions (temperature, humidity, ventilation, hygienic conditions). In the study a formulation in solution for ophthalmic use was utilized constituted by […] liposomes including 2% citicoline sodium salt. […]
Moreover on each animal an endocardial blood sample was taken after total anaesthesia both before and after treatment, just before being sacrificed, by using a test tube with EDTA; on such sample, for each animal, the blood count and citicoline presence were determined. […]
After extraction and subsequent centrifugation at 13,000 rpm for 5 minutes at 5° C. the supernatant was taken and injected into a HPLC system equipped with a ultraviolet detector Diode Array and chromatographic column C18—Kromasil 250×4.6 mm with 5-μm particles. Of course, all samples, even the checks, were subjected to the same kind of treatment before being analysed in HPLC. […]

[2] = taken orally, cited from earlier work

vitreous humour citicoline as % of the amount applied topically ([1]; eyes treated topically with liposome solution for three days): 13%
presence/penetration of citicoline in the vitreous humour (in words) ([1]; topical treatment, HPLC elution profile, comparison with citicoline administered in solution (Parisi et al., 2015; Roberti et al., 2015)): present in high concentrations
Structure (SMILES): C[N+](C)(C)CCOP(=O)(O)OP(=O)([O-])OC[C@H]1O[C@@H](n2ccc(N)nc2=O)[C@H](O)[C@@H]1O [Citicoline, cytidine-5′-diphosphocholine]
time of plasma peak after ingestion ([2]; first peak): 1 h
time of larger second plasma peak ([2]; later peak): 24 h
fraction excreted in the feces [2]: less than 1%
